According to US4533675A (priority 1984, dated 1985):
Read-outs that look alike come from different tables or passages of the source.

Legend:
tubulin protein = test: Tubulin binding in vitro
[1] = LD50 in mice after ip injection; type: in vivo
[2] = ip injection, data from Brossi et al., J. Med. Chem., 26:1365 (1983); cited from earlier work

## CCOC(=O)N[C@H]1CCc2cc(OC)c(OC)c(OC)c2-c2ccc(SC)c(=O)cc21 [Et H SMe]
Tubulin protein
  Tubulin Binding in vitro: 96
[1]
  LD50 in Mice after ip inj: 77.1 mg/kg

## COc1cc2c(c(OC)c1OC)-c1ccc(OC)c(=O)cc1[C@@H](NC(C)=O)CC2 [Colchicine, colchicine]
[2]
  LD50 in Mice after ip inj: 3.0 mg/kg

## COc1cc2c(c(OC)c1OC)-c1ccc(SC)c(=O)cc1[C@@H](NC(=O)Oc1ccccc1)CC2 [Ph H SMe, N-Phenoxycarbonyl-deacetylthiocolchicine]
[1]; mouse, in vivo, read-out: LD50 in Mice after ip inj
  LD50: 50 mg/kg
